The text below walks through data of patent publication US4670260A, “Antibiotic for animal feeds” (Bayer Aktiengesellschaft, priority 1984, dated 1987).

The test system of one test is Streptomyces strain BA 9. The experiment in a line: Growth inhibition of producing strain BA 9 by antibiotics. Format: cell-based, Streptomyces sp. To be noted: 5 μg; ISP medium No. 1+, 28° C., 2 d. As to the method: The optimum temperature is 28° (ISP medium No. 1^+, 5 d). No growth was observed on ISP medium No. 7 (tyrosine agar). Melanin is formed on ISP medium No. 6. The growth is inhibited by chloramphenicol (10 μg); erythromycin (10 μg), sulphafurazole (100 μg), streptomycin (10 μg), tetracycline (10 μg), chephaloridine (5 μg) fusidic acid (10 μg), lincomycin (10 μg) and novobiocib (5 μg) (ISP medium No. 1^+, 28° C., 2 d). Growth was good (substrate mycelium) on ISP media Nos. 3, 4 and 5, with sparse formation of aerial mycelium on ISP medium Nos. 3 and 5.
As for `O=C(Cc1cccs1)N[C@@H]1C(=O)N2C(C(=O)[O-])=C(C[n+]3ccccc3)CS[C@H]12` [chephaloridine], the “growth inhibition of strain BA 9” value is “inhibited”.

In the case of `CO[C@@H]1[C@@H](OC(N)=O)[C@@H](O)[C@H](Oc2ccc3c(O)c(NC(=O)c4ccc(O)c(CC=C(C)C)c4)c(=O)oc3c2C)OC1(C)C` [novobiocib], the “growth inhibition of strain BA 9” value is “inhibited”.

The test is the same for the next values; noted with them: 10 μg; ISP medium No. 1+, 28° C., 2 d.
For the compound `O=C(N[C@H](CO)[C@H](O)c1ccc([N+](=O)[O-])cc1)C(Cl)Cl` [chloramphenicol], the “growth inhibition of strain BA 9” value is “inhibited”.

For the compound `CC[C@H]1OC(=O)[C@H](C)[C@@H](O[C@H]2C[C@@](C)(OC)[C@@H](O)[C@H](C)O2)[C@H](C)[C@@H](O[C@@H]2O[C@H](C)C[C@H](N(C)C)[C@H]2O)[C@](C)(O)C[C@@H](C)C(=O)[C@H](C)[C@@H](O)[C@]1(C)O` [erythromycin], the “growth inhibition of strain BA 9” value is listed as “inhibited”.

With `CC(=O)O[C@H]1C[C@@]2(C)[C@@H](C[C@@H](O)[C@H]3[C@@]4(C)CC[C@@H](O)[C@@H](C)[C@@H]4CC[C@@]32C)/C1=C(\CCC=C(C)C)C(=O)O` [fusidic acid], the “growth inhibition of strain BA 9” value is on record as “inhibited”.

Take `CCC[C@@H]1C[C@@H](C(=O)N[C@@H]([C@H]2O[C@H](SC)[C@H](O)[C@@H](O)[C@H]2O)[C@@H](C)O)N(C)C1` [lincomycin]: the “growth inhibition of strain BA 9” value was “inhibited”.

`[H]/N=C(/N)N[C@H]1[C@H](O)[C@@H](O)[C@H](O[C@@H]2O[C@@H](C)[C@](O)(C=O)[C@H]2O[C@@H]2O[C@@H](CO)[C@H](O)[C@@H](O)[C@@H]2NC)[C@@H](N/C(N)=N\[H])[C@@H]1O` [streptomycin]: the “growth inhibition of strain BA 9” value is “inhibited”.

As to `CN(C)C1C(=O)C(C(N)=O)=C(O)C2(O)C(=O)C3=C(O)c4c(O)cccc4C(C)(O)C3CC12` (stereo not drawn) [tetracycline], the “growth inhibition of strain BA 9” value was “inhibited”.

Still in this test, the particulars now being: 100 μg; ISP medium No. 1+, 28° C., 2 d.
As for `Cc1noc(NS(=O)(=O)c2ccc(N)cc2)c1C` [sulphafurazole], the “growth inhibition of strain BA 9” value is reported as “inhibited”.
